Assay results from paper PMC9783868, “Indoline-5-Sulfonamides: A Role of the Core in Inhibition of Cancer-Related Carbonic Anhydrases, Antiproliferative Activity and Circumventing of Multidrug Resistance” (Pharmaceuticals, 2022).
Read-outs that look alike come from different tables or passages of the source.

Assays:
[1] = tested on: MCF7 cells; test: Antiproliferative activity, MTT test; format: cell-based; details: Homo sapiens, MTT assay after 72 h exposure
Procedure: A series of synthesized indoline-5-sulfonamides was tested on the MCF7 cancer cell line under normoxia and hypoxia using the MTT test.
The MDR subline K562/4 [77] (kind gift of Dr. Alexander Shtil, Blokhin N.N. National Medical Research Center of Oncology) was obtained by stepwise selection of K562 cells for survival under continuous exposure to Dox. This subline expresses the MDR1 gene and functional P-gp and is characterized by a high resistance index for Dox. […] Cells in the logarithmic phase of growth were used in the experiments. The growth inhibitory activity of compounds was assessed by the MTT test based on the metabolism of the MTT reagent (3-[4,5-dimethylthiazol-2-yl]-2,5-diphenyltetrazolium bromide) (Applichem) in living cells, with modifications as described previously in [49]. Compounds at different concentrations in 100 μL of the appropriate medium were added, and the cells were grown for 72 h. The hypoxia (1% O2) conditions were simulated in Binder multigas incubator, as described in [49]. After incubation with compounds, the medium was removed, the MTT reagent that was dissolved in the medium was added to the final concentration of 0.2 mg/mL to each well, and the incubation was performed for 2 h. Then the cell supernatants were removed, and purple formazan crystals were dissolved in 100% DMSO (350 μL per well). Culture plates were gently shaken, and the absorbance was measured at 571 nm with a reference wavelength of 630 nm on a MultiScan reader (ThermoFisher, Waltham, MA, USA). The viability of the cells was expressed as a percentage of the control. Dose-response curves were analyzed by regression analysis using sigmoid curves (Log(concentration) vs. normalized absorbance).
All results were reported as means ± SD. One-way analysis of variance was used for the analysis of data. Differences were defined as significant at p < 0.05. GraphPad Prism7 (GraphPad Software, San Diego, CA, USA) was used for the determination of the half-maximal inhibitory concentration (IC50) values.

[2] = molecular target: T1, hCA XII (Homo sapiens, UniProt O43570); test: CA inhibition, stopped-flow CO2 hydration assay; format: biochemical; details: stopped-flow technique; mean from three assays
T1 construct: made in house
Procedure: (§1) The CO2 hydration activity of the four hCA isoforms was monitored using an Applied Photophysics stopped-flow instrument. Phenol red (at a concentration of 0.2 mM) was used as an indicator, working at the absorbance maximum of 557 nm, with 10 mM HEPES (pH 7.4) as a buffer, and 20 mM NaClO4 (for maintaining constant the ionic strength), following the initial rates of the CA-catalyzed CO2 hydration reaction for a period of 10–100 s. To determine the kinetic parameters by Lineweaver-Burk plots and the inhibition constants, a concentration of CO2 between 1.7 to 17 mM was used. At least six measurements of the original 5–10% reaction were used to assess the initial velocity for each inhibitor. The uncatalyzed rates were determined and detracted from the total observed rates. Stock inhibitor solutions (10–100 mM) were prepared in distilled-deionized water, and dilutions up to 0.1 nM were done with the buffer test. […] The inhibition constants were obtained by non-linear least-squares methods using PRISM 6 and the Cheng-Prusoff equation, as reported earlier, and represent the mean from at least three different determinations.

[3] = molecular target: T2, hCA IX (Homo sapiens, UniProt Q16790); test: CA inhibition, stopped-flow CO2 hydration assay; format: biochemical; details: stopped-flow technique; mean from three assays
T2 construct: made in house
Procedure: as §1

[4] = molecular target: T3, hCA I (Homo sapiens, UniProt P00915); test: CA inhibition, stopped-flow CO2 hydration assay; format: biochemical; details: stopped-flow technique; mean from three assays
T3 construct: made in house
Procedure: as §1

[5] = molecular target: T4, hCA II (Homo sapiens, UniProt P00918); test: CA inhibition, stopped-flow CO2 hydration assay; format: biochemical; details: stopped-flow technique; mean from three assays
T4 construct: made in house
Procedure: as §1

[6] = tested on: A431 skin cancer cells; test: Antiproliferative activity, MTT test; format: cell-based, human; details: 72 h, normoxia
Text: To evaluate the influence of CA inhibition on the antiproliferative activity, we selected five compounds 4b, f, m, n and 10 with different inhibition profiles against CA IX for in-depth testing on cancer cells with increased CA IX expression. The database www.proteinatlas.org (accessed on 13 October 2022) contains data on gene expression in various cell lines. According to the data obtained from this database, A431 cells express CA IX at a very high level, which distinguishes them from human cell lines belonging to other tissues [https://www.proteinatlas.org/ENSG00000107159-CA9/cell+line (accessed on 13 October 2022)]. A431 cells are skin cancer cells, and their growth has already been intensely analyzed in hypoxia. […] Moreover, Ren and colleagues described that hypoxia modulates cellular pathways in A431 cells, which are associated with radioresistance and enhanced migration. Given the observations described above, we were expecting to reveal the high antiproliferative activity of the selected compounds against skin cancer cells. […] In hypoxia, the activity of tested compounds was increased, but the 50% inhibition of growth was never achieved.
(§2) The MCF7 human breast, A431 human skin cancer cells and K562 (ATCC CCL-243) chronic myelogenous leukemia cells were obtained from the ATCC collection. The MDR subline K562/4 [77] […] The growth inhibitory activity of compounds was assessed by the MTT test based on the metabolism of the MTT reagent (3-[4,5-dimethylthiazol-2-yl]-2,5-diphenyltetrazolium bromide) (Applichem) in living cells, with modifications as described previously in [49]. […] Culture plates were gently shaken, and the absorbance was measured at 571 nm with a reference wavelength of 630 nm on a MultiScan reader (ThermoFisher, Waltham, MA, USA). The viability of the cells was expressed as a percentage of the control. Dose-response curves were analyzed by regression analysis using sigmoid curves (Log(concentration) vs. normalized absorbance).

[7] = tested on: K562/4 cells; test: Reversal of chemoresistance to Dox, MTT test; format: cell-based, human
Text: Earlier, Kopecka and colleagues have shown that CA XII can interact with P-gp and influence its activity. Subsequently, silencing or inhibition of CA XII by chemical agents may restore the sensitivity to Dox of resistant K562 and other tumor cells. Given the potent inhibition of 4f against CA XII and the activity of 4e against K562, we examined their ability to reverse the chemoresistance of K562/4 with P-gp to Dox.
The MCF7 human breast, A431 human skin cancer cells and K562 (ATCC CCL-243) chronic myelogenous leukemia cells were obtained from the ATCC collection. The MDR subline K562/4 [77] (kind gift of Dr. Alexander Shtil, Blokhin N.N. National Medical Research Center of Oncology) was obtained by stepwise selection of K562 cells for survival under continuous exposure to Dox. This subline expresses the MDR1 gene and functional P-gp and is characterized by a high resistance index for Dox. The MCF7 and A431 cells were cultured in standard 4.5 g/L glucose DMEM medium (Gibco) supplemented with 10% FCS (HyClone), 2 mM L-glutamine, 50 U/mL penicillin, 50 µg/mL streptomycin (PanEco), 100 µg/mL sodium pyruvate (Santa Cruz) at 37 °C, 5% CO2 and 80–85% humidity in NuAire incubator. Suspension myelogenous leukemia cells (K562, K562/4) were propagated in RPMI-1640 (PanEco) with 5% FCS (HyClone), 2 mM L-glutamine, 100 U/mL penicillin, and 100 µg/mL streptomycin at 37 °C, 5% CO2, and 80–85% humidity in Binder incubator. Cells in the logarithmic phase of growth were used in the experiments. The growth inhibitory activity of compounds was assessed by the MTT test based on the metabolism of the MTT reagent (3-[4,5-dimethylthiazol-2-yl]-2,5-diphenyltetrazolium bromide) (Applichem) in living cells, with modifications as described previously in [49]. Compounds at different concentrations in 100 μL of the appropriate medium were added, and the cells were grown for 72 h. The hypoxia (1% O2) conditions were simulated in Binder multigas incubator, as described in [49]. After incubation with compounds, the medium was removed, the MTT reagent that was dissolved in the medium was added to the final concentration of 0.2 mg/mL to each well, and the incubation was performed for 2 h. Then the cell supernatants were removed, and purple formazan crystals were dissolved in 100% DMSO (350 μL per well). Culture plates were gently shaken, and the absorbance was measured at 571 nm with a reference wavelength of 630 nm on a MultiScan reader (ThermoFisher, Waltham, MA, USA). The viability of the cells was expressed as a percentage of the control. Dose-response curves were analyzed by regression analysis using sigmoid curves (Log(concentration) vs. normalized absorbance).
Figure 6 Susceptibility of resistant K562/4 line to combinations of Dox (25 µM) with indoline-5-sulfonamides 4e and 4f. […]

[8] = tested on: K562 cells; test: Antiproliferative activity, MTT test; format: cell-based, human
Text: Next, we examined the activity of the whole series of indoline-5-sulfonamides against leukemia cell line K562.
as §2, with “[77] (kind gift of Dr. Alexander Shtil, Blokhin N.N. National Medical Research Center of Oncology) was obtained by stepwise selection of K562 cells for survival under continuous exposure to Dox. This subline expresses the MDR1 gene and functional P-gp and is characterized by a high resistance index for Dox.” for “[77]”

[9] = hypoxia (1% O2), read-out: IC50 against MCF7 Cells, Hypoxia
[10] = normoxia, read-out: IC50 against MCF7 Cells, Normoxia

T1 sequence (O43570 25-354): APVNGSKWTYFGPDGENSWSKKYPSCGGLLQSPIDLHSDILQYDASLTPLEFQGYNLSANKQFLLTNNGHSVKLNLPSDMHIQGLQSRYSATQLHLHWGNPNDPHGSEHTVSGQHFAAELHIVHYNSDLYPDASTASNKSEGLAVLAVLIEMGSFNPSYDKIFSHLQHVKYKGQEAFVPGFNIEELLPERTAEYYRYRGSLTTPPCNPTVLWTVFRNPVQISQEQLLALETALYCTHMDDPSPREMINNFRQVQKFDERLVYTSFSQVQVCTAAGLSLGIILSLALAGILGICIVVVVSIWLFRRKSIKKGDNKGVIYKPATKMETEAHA
T3 sequence (P00915 whole entry): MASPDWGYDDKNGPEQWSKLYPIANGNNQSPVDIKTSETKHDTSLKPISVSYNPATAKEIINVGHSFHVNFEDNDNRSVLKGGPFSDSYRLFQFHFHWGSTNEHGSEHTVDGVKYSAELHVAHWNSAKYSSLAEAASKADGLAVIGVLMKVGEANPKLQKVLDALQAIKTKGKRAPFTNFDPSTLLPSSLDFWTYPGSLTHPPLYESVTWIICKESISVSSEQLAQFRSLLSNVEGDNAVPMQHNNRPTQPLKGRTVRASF

Row | IC50 [1, 9] [nM] | IC50 [1, 10] [nM] | Ki [2] [nM] | Ki [3] [nM] | Ki [4] [nM] | Ki [5] [nM] | melting point [°C] | SMILES | inhibition of growth of A431 cells, normoxia [6] | effect of combination with Dox on viable K562/4 cells ([7]; combination with Dox (25 µM)) | cytotoxic activity against MDR subline K562/4 as monoagent ([7]; monoagent) | concentration inhibiting growth of K562 cells [8] [µM]
1 | > 50000 | > 50000 | > 10000 | > 10000 | 65.9 | 5.6 | > 250 | NS(=O)(=O)c1ccc2c(c1)CCN2C(=O)c1cccc(F)c1 [Compound 4b, 1-(3-Fluorobenzoyl)indoline-5-sulfonamide] | least active |  |  | 
2 | 20200 ± 2000 | 29900 ± 2700 | 127 | 1300 | 52.2 | 3.4 | 187 to 189 | NS(=O)(=O)c1ccc2c(c1)CCN2C(=O)c1c(F)c(F)c(F)c(F)c1F [Compound 4e, 1-(Perfluorobenzoyl)indoline-5-sulfonamide] |  | decline of viable K562/4 cells | low cytotoxic activity | 10
3 | 36700 ± 3200 | 29600 ± 2200 | 103 | > 10000 | 49 | 3 | 248 to 250 | COc1cc(C(=O)N2CCc3cc(S(N)(=O)=O)ccc32)cc(OC)c1OC [Compound 4m, 1-(3,4,5-Trimethoxybenzoyl)indoline-5-sulfonamide] | least active |  |  | 
